Measurements published in BigSolDB 2.1.

Work on `COc1cc2c(cc1OC)C(=O)CC2` yielded a solubility (mole fraction) (in 2-butanone, 283.15 K) of 0.0514, a solubility (mole fraction) (in 2-butanone, 288.15 K) of 0.0623 and a solubility (mole fraction) (in 2-butanone, 293.15 K) of 0.0746. For the same compound, the solubility (mole fraction) (in 2-butanone, 298.15 K) was 0.0891, the solubility (mole fraction) (in 2-butanone, 303.15 K) was 0.105 and the solubility (mole fraction) (in 2-butanone, 308.15 K) was 0.125. It also gave a solubility (mole fraction) (in 2-butanone, 313.15 K) of 0.149, a solubility (mole fraction) (in 2-butanone, 318.15 K) of 0.177 and a solubility (mole fraction) (in 2-butanone, 323.15 K) of 0.208. The solubility (mole fraction) (in acetone, 283.15 K) was 0.0486, the solubility (mole fraction) (in acetone, 288.15 K) was 0.0596 and the solubility (mole fraction) (in acetone, 293.15 K) was 0.071. The solubility (mole fraction) (in acetone, 298.15 K) was 0.0834, the solubility (mole fraction) (in acetone, 303.15 K) was 0.101 and the solubility (mole fraction) (in acetone, 308.15 K) was 0.122. The solubility (mole fraction) (in acetone, 313.15 K) was 0.146, the solubility (mole fraction) (in acetone, 318.15 K) was 0.173 and the solubility (mole fraction) (in acetone, 323.15 K) was 0.2. It also gave a solubility (mole fraction) (in ethanol, 283.15 K) of 0.00826, a solubility (mole fraction) (in ethanol, 288.15 K) of 0.0112 and a solubility (mole fraction) (in ethanol, 293.15 K) of 0.0141. It also gave a solubility (mole fraction) (in ethanol, 298.15 K) of 0.0193, a solubility (mole fraction) (in ethanol, 303.15 K) of 0.0242 and a solubility (mole fraction) (in ethanol, 308.15 K) of 0.0317. It also gave a solubility (mole fraction) (in ethanol, 313.15 K) of 0.0412, a solubility (mole fraction) (in ethanol, 318.15 K) of 0.0519 and a solubility (mole fraction) (in ethanol, 323.15 K) of 0.0636. For the same compound, the solubility (mole fraction) (in ethyl acetate, 283.15 K) was 0.0389, the solubility (mole fraction) (in ethyl acetate, 288.15 K) was 0.0492 and the solubility (mole fraction) (in ethyl acetate, 293.15 K) was 0.059. For the same compound, the solubility (mole fraction) (in ethyl acetate, 298.15 K) was 0.0697, the solubility (mole fraction) (in ethyl acetate, 303.15 K) was 0.0842 and the solubility (mole fraction) (in ethyl acetate, 308.15 K) was 0.101. It also gave a solubility (mole fraction) (in ethyl acetate, 313.15 K) of 0.122, a solubility (mole fraction) (in ethyl acetate, 318.15 K) of 0.147 and a solubility (mole fraction) (in ethyl acetate, 323.15 K) of 0.171. It also gave a solubility (mole fraction) (in isobutanol, 283.15 K) of 0.0123, a solubility (mole fraction) (in isobutanol, 288.15 K) of 0.0161 and a solubility (mole fraction) (in isobutanol, 293.15 K) of 0.0212. It also gave a solubility (mole fraction) (in isobutanol, 298.15 K) of 0.0288, a solubility (mole fraction) (in isobutanol, 303.15 K) of 0.0385 and a solubility (mole fraction) (in isobutanol, 308.15 K) of 0.0493. For the same compound, the solubility (mole fraction) (in isobutanol, 313.15 K) was 0.0646, the solubility (mole fraction) (in isobutanol, 318.15 K) was 0.0806 and the solubility (mole fraction) (in isobutanol, 323.15 K) was 0.102. The solubility (mole fraction) (in isopropanol, 283.15 K) was 0.00596, the solubility (mole fraction) (in isopropanol, 288.15 K) was 0.00802 and the solubility (mole fraction) (in isopropanol, 293.15 K) was 0.0108. It also gave a solubility (mole fraction) (in isopropanol, 298.15 K) of 0.0146, a solubility (mole fraction) (in isopropanol, 303.15 K) of 0.0198 and a solubility (mole fraction) (in isopropanol, 308.15 K) of 0.0269. The solubility (mole fraction) (in isopropanol, 313.15 K) was 0.0354, the solubility (mole fraction) (in isopropanol, 318.15 K) was 0.0455 and the solubility (mole fraction) (in isopropanol, 323.15 K) was 0.0588. For the same compound, the solubility (mole fraction) (in isopropyl acetate, 283.15 K) was 0.0264, the solubility (mole fraction) (in isopropyl acetate, 288.15 K) was 0.0329 and the solubility (mole fraction) (in isopropyl acetate, 293.15 K) was 0.0396. It also gave a solubility (mole fraction) (in isopropyl acetate, 298.15 K) of 0.0485, a solubility (mole fraction) (in isopropyl acetate, 303.15 K) of 0.0581 and a solubility (mole fraction) (in isopropyl acetate, 308.15 K) of 0.0691. It also gave a solubility (mole fraction) (in isopropyl acetate, 313.15 K) of 0.0801, a solubility (mole fraction) (in isopropyl acetate, 318.15 K) of 0.0933 and a solubility (mole fraction) (in isopropyl acetate, 323.15 K) of 0.11. For the same compound, the solubility (mole fraction) (in methanol, 283.15 K) was 0.0097, the solubility (mole fraction) (in methanol, 288.15 K) was 0.0124 and the solubility (mole fraction) (in methanol, 293.15 K) was 0.0171. It also gave a solubility (mole fraction) (in methanol, 298.15 K) of 0.0238, a solubility (mole fraction) (in methanol, 303.15 K) of 0.0317 and a solubility (mole fraction) (in methanol, 308.15 K) of 0.0418. It also gave a solubility (mole fraction) (in methanol, 313.15 K) of 0.0547, a solubility (mole fraction) (in methanol, 318.15 K) of 0.071 and a solubility (mole fraction) (in methanol, 323.15 K) of 0.0902. It also gave a solubility (mole fraction) (in methyl acetate, 283.15 K) of 0.0426, a solubility (mole fraction) (in methyl acetate, 288.15 K) of 0.053 and a solubility (mole fraction) (in methyl acetate, 293.15 K) of 0.0665. For the same compound, the solubility (mole fraction) (in methyl acetate, 298.15 K) was 0.0793, the solubility (mole fraction) (in methyl acetate, 303.15 K) was 0.0986 and the solubility (mole fraction) (in methyl acetate, 308.15 K) was 0.118. The solubility (mole fraction) (in methyl acetate, 313.15 K) was 0.139, the solubility (mole fraction) (in methyl acetate, 318.15 K) was 0.159 and the solubility (mole fraction) (in methyl acetate, 323.15 K) was 0.185. It also gave a solubility (mole fraction) (in n-butanol, 283.15 K) of 0.0118, a solubility (mole fraction) (in n-butanol, 288.15 K) of 0.0155 and a solubility (mole fraction) (in n-butanol, 293.15 K) of 0.02. The solubility (mole fraction) (in n-butanol, 298.15 K) was 0.0268, the solubility (mole fraction) (in n-butanol, 303.15 K) was 0.0352 and the solubility (mole fraction) (in n-butanol, 308.15 K) was 0.0451. For the same compound, the solubility (mole fraction) (in n-butanol, 313.15 K) was 0.0583, the solubility (mole fraction) (in n-butanol, 318.15 K) was 0.0739 and the solubility (mole fraction) (in n-butanol, 323.15 K) was 0.0925. For the same compound, the solubility (mole fraction) (in n-butyl acetate, 283.15 K) was 0.025, the solubility (mole fraction) (in n-butyl acetate, 288.15 K) was 0.0294 and the solubility (mole fraction) (in n-butyl acetate, 293.15 K) was 0.0359. The solubility (mole fraction) (in n-butyl acetate, 298.15 K) was 0.0428, the solubility (mole fraction) (in n-butyl acetate, 303.15 K) was 0.0503 and the solubility (mole fraction) (in n-butyl acetate, 308.15 K) was 0.0593. For the same compound, the solubility (mole fraction) (in n-butyl acetate, 313.15 K) was 0.0695, the solubility (mole fraction) (in n-butyl acetate, 318.15 K) was 0.0795 and the solubility (mole fraction) (in n-butyl acetate, 323.15 K) was 0.0897. The solubility (mole fraction) (in n-pentanol, 283.15 K) was 0.0115, the solubility (mole fraction) (in n-pentanol, 288.15 K) was 0.0156 and the solubility (mole fraction) (in n-pentanol, 293.15 K) was 0.0216. The solubility (mole fraction) (in n-pentanol, 298.15 K) was 0.0278, the solubility (mole fraction) (in n-pentanol, 303.15 K) was 0.0386 and the solubility (mole fraction) (in n-pentanol, 308.15 K) was 0.0509. It also gave a solubility (mole fraction) (in n-pentanol, 313.15 K) of 0.0659, a solubility (mole fraction) (in n-pentanol, 318.15 K) of 0.0827 and a solubility (mole fraction) (in n-pentanol, 323.15 K) of 0.104. The solubility (mole fraction) (in n-propanol, 283.15 K) was 0.00925, the solubility (mole fraction) (in n-propanol, 288.15 K) was 0.0119 and the solubility (mole fraction) (in n-propanol, 293.15 K) was 0.0158. The solubility (mole fraction) (in n-propanol, 298.15 K) was 0.0206, the solubility (mole fraction) (in n-propanol, 303.15 K) was 0.0281 and the solubility (mole fraction) (in n-propanol, 308.15 K) was 0.0356. The solubility (mole fraction) (in n-propanol, 313.15 K) was 0.0457, the solubility (mole fraction) (in n-propanol, 318.15 K) was 0.0579 and the solubility (mole fraction) (in n-propanol, 323.15 K) was 0.0695. The solubility (mole fraction) (in n-propyl acetate, 283.15 K) was 0.034, the solubility (mole fraction) (in n-propyl acetate, 288.15 K) was 0.0424 and the solubility (mole fraction) (in n-propyl acetate, 293.15 K) was 0.05. It also gave a solubility (mole fraction) (in n-propyl acetate, 298.15 K) of 0.0596, a solubility (mole fraction) (in n-propyl acetate, 303.15 K) of 0.0694 and a solubility (mole fraction) (in n-propyl acetate, 308.15 K) of 0.0821. The solubility (mole fraction) (in n-propyl acetate, 313.15 K) was 0.0962, the solubility (mole fraction) (in n-propyl acetate, 318.15 K) was 0.109 and the solubility (mole fraction) (in n-propyl acetate, 323.15 K) was 0.129. It also gave a solubility (mole fraction) (in sec-butanol, 283.15 K) of 0.0105, a solubility (mole fraction) (in sec-butanol, 288.15 K) of 0.0147 and a solubility (mole fraction) (in sec-butanol, 293.15 K) of 0.0199. For the same compound, the solubility (mole fraction) (in sec-butanol, 298.15 K) was 0.0272, the solubility (mole fraction) (in sec-butanol, 303.15 K) was 0.0357 and the solubility (mole fraction) (in sec-butanol, 308.15 K) was 0.0461. For the same compound, the solubility (mole fraction) (in sec-butanol, 313.15 K) was 0.0612, the solubility (mole fraction) (in sec-butanol, 318.15 K) was 0.0766 and the solubility (mole fraction) (in sec-butanol, 323.15 K) was 0.0943.
